The values below come from ChEMBL document CHEMBL5724803, “Viability screening in matched tumor and normal assay results for EUbOPEN Chemogenomics Library” (2024).

In the assay the test system is Colon organoid. Type of assay: functional, Homo sapiens.

Molecules are shown by their SMILES.

On to `COc1ccc2c(c1)O[C@@H](c1ccc(OC)c(OC)c1)C[C@H]2NC(=O)C1(c2ccc3c(c2)OC(F)(F)O3)CC1` [A-1596586], for which the “Cell Viability Ratio” value is listed as 1.062.

`CCCOc1ccc([C@@H]2[C@@H](C(=O)O)[C@H](c3ccc4c(c3)OCO4)CN2CC(=O)Nc2c(CC)cccc2CC)cc1` [A-1806262]: the “Cell Viability Ratio” value came to 1.041.

Regarding `Cc1cnc(-c2cc(Cl)ccc2F)cc1-n1c(=O)n(CC(N)=O)c2ccccc21` [Al11], the “Cell Viability Ratio” value came out at 1.079.

On to `Cn1c(-c2csc(C3CCN(CC4=NC5N=CC=CC5N4)CC3)n2)nc2ccccc21` (stereo not given) [BAY-070], for which the “Cell Viability Ratio” value is reported as 0.9524.

As for `NS(=O)(=O)c1cc(NC(=O)C2(c3ccccc3Cl)CC2)ccc1Oc1cccc(Cl)c1` [BAY-207], the “Cell Viability Ratio” value is listed as 0.9336.

`Cc1cc(NC(=O)c2cccc(S(F)(F)(F)(F)F)c2)cc(-n2ccn3nc(-c4cccnc4)cc23)c1` [BAY-309]: the “Cell Viability Ratio” value is 1.076.

With `O=C(N1CCS(=O)(=O)CC1)N1C[C@H](c2ccc(OC(F)(F)F)cc2)C[C@H](c2nc(C3CC3)no2)C1` [BAY-386], the “Cell Viability Ratio” value stood at 0.9974.

With `O[C@]1(C(F)(F)F)CCCC[C@H]1Nc1ccc(F)cc1` [BAY-390], the “Cell Viability Ratio” value is reported as 0.968.

As for `Cc1c(N2CCNCC2)nc2ccc(Br)cc2c1C(=O)NC[C@H](CCC(=O)O)c1ccccc1Cl` [BAY-403], the “Cell Viability Ratio” value is on record as 0.887.

As for `CN(C)c1ncnc(-c2ccc3nc(Nc4cc(CN5CCN(C(=O)CC(F)(F)F)CC5)ccn4)[nH]c3c2)c1Cl` [BAY-440], the “Cell Viability Ratio” value is given as 0.922.

Take `Cc1noc([C@H]2C[C@@H](c3ccc(C(F)(F)F)cc3)CN(C(=O)N3CCS(=O)(=O)C3)C2)n1` [BAY-448]: the “Cell Viability Ratio” value came out at 0.9504.

On to `CC1=C(C#N)C(c2ccc3[nH]nc(C)c3c2)C(C#N)=C(C)N1` [BAY-474], for which the “Cell Viability Ratio” value is given as 0.9495.

As for `Cc1c(NC(=O)c2cc(C(N)=O)nc3cc(F)ccc23)c(C(F)(F)F)nn1Cc1ccc(C(C)(C)C)cc1` [BAY-588], the “Cell Viability Ratio” value is reported as 1.099.

Regarding `O=C(O)[C@@H]1[C@@H](Cn2nnc3ccccc3c2=O)CC[C@H]1C(=O)c1ccc(OCCC2CCOCC2)cc1` [BAY-694], the “Cell Viability Ratio” value is on record as 1.051.

Consider `O=C(NCc1ncc(C(F)(F)F)cc1Cl)c1ccc2c(c1)C1(CCS(=O)(=O)CC1)[C@H](C1CC1)N2S(=O)(=O)c1ccc(F)cc1` [BAY-784], for which the “Cell Viability Ratio” value came to 0.9106.

As for `O=C(NCc1ncc(C(F)(F)F)cc1Cl)c1ccc2c(c1)C1(CCS(=O)(=O)CC1)[C@@H](C1CC1)N2S(=O)(=O)c1ccc(F)cc1` [BAY-786], the “Cell Viability Ratio” value turned out to be 1.0741.

`Cc1c(NC(=O)c2cc(C(N)=O)nc3cc(F)ccc23)c(C(F)(F)F)nn1Cc1ccc(C#N)cc1` [BAY-876]: the “Cell Viability Ratio” value was 1.117.

As for `CN1CCN(c2cnc3c(C4CCN(C(=O)c5ccc(OC(F)(F)F)cc5N)CC4)ncnc3c2)CC1` [BAY-885], the “Cell Viability Ratio” value was 0.9479.

On to `O=C(Nc1cnc(Oc2ccc(F)cc2)nc1)N1CCc2ncccc2[C@@H]1c1ccc(F)cc1` [BAY-899], for which the “Cell Viability Ratio” value was 1.086.

`CC1=C(C#N)C(c2ccc3c(c2)c(NC(=O)c2ccccc2C)nn3C)C(C#N)=C(C)N1` [BAY-974]: the “Cell Viability Ratio” value came out at 1.012.

As to `C[C@H](c1ccnc(Nc2nc3ccc(-c4cc(N(C)C)ncn4)cc3[nH]2)c1)N1CCN(C(=O)CC(F)(F)F)CC1` [BAY-985], the “Cell Viability Ratio” value is recorded as 0.822.

`Cn1cc(Cl)c2c(Oc3c(F)cc(Nc4cc(Cl)nc(N)n4)cc3F)ccnc21` [BAY-4900]: the “Cell Viability Ratio” value worked out at 1.21.

Consider `Cc1c(N2CCCC2)nc2ccc(Br)cc2c1C(=O)NC[C@H](CCC(=O)O)c1ccccc1Cl` [BAY-6672], for which the “Cell Viability Ratio” value is listed as 0.9418.

In the case of `O=C(O)[C@H]1[C@H](Cn2nnc3ccccc3c2=O)CC[C@@H]1C(=O)c1ccc(OCCC2CCOCC2)cc1` [BAY-7598], the “Cell Viability Ratio” value came out at 1.026.

For the molecule `COc1cc(N[C@@H]2CCCC[C@]2(O)C(F)(F)F)ccc1F` [BAY-9897], the “Cell Viability Ratio” value came out at 0.9982.
